{"source": "patent US12668573B2", "about": "“Linker, antibody-drug conjugate including same and use thereof” (Zhejiang Yangshengtang Institute of Natural Medication Co., …, priority 2018, dated 2026)", "key": {"[1]": {"test": "Stability of small molecule-linker conjugates in presence of excess free sulfhydryl (Cys), RP-HPLC", "type": "physicochemical", "settings": "PBS with Cys 0.41 mg/mL, pH=7.4, 37° C., 7 days; peak area at t=0 defined as 100%", "protocol": "In this example, the small molecule conjugates containing methyl maleate linker (Conjugate-1, Conjugate-2 and Conjugate-3, prepared in Example 9) and small molecule conjugates containing succinimide linker (Conjugate-1′, Conjugate-2′ and Conjugate-3′, prepared in Example 9) were evaluated to determine their stability situations in the presence of excess free sulfhydryl (Cys), in which the monitoring indicators were the changes of the remaining amounts of the small molecule conjugates containing two different linkers in the solution over time. The substances to be tested were each dissolved in DMSO, diluted with 10 times volume of PBS buffer containing cysteine (in which the concentration of Cys was 0.41 mg/mL, pH=7.4) and incubated in a 37° C. incubator; at t=0, another 200 μL of each sample was taken and stored at −80° C. as control. After each solution was incubated for 7 days, samples were taken separately, and RP-HPLC was used to detect the changes of their remaining amounts of substrate over time, in which the peak area of substrate at t=0 was defined as 100%."}, "SK-OV-3": {"test_system": "SK-OV-3", "test": "In vitro cytotoxicity test (CellTiter Glo, 96 h)", "type": "cell-based", "settings": "Sk-OV-3, HER2-positive ovarian cancer; ADC DAR about 4", "protocol": "(§1) The selected cell lines included antigen HER2-positive breast cancer cell lines BT-474 and HCC1954, antigen HER2-positive ovarian cancer cell line SK-OV-3, antigen HER2-positive gastric cancer cell line NCI-N87, and antigen HER2-weakly positive breast cancer cell line MCF-7, and antigen HER2-negative breast cancer cell line MDA-MB-468 (purchased from ATCC).\n(§2) a) Vial was gently shaken in a 37° C. water bath to be thawed; b) after all the contents had been thawed, the vial was taken out from the water bath, and disinfected by immersion in or spraying with 70% ethanol; c) the contents of the vial was transferred into a centrifuge tube containing 9 mL of complete medium (DMEM medium was used for cell lines BT-474 and MCF-7; RPMI1640 medium was used for cell lines NCI-N87, HCC1954 and MDA-MB-468; and Mccoy's 5A medium was used for cell line SK-OV-3; the media described below were the same as here), and centrifuged at about 200 xg for 5 minutes; d) the cell pellet was re-suspended in a medium and distributed into a 75 cm^2 culture flask; e) the resulting culture was incubated in a 37° C., 5% CO2 incubator.\n(§3) a) The cells were passaged three times a week at a ratio of 1:4 in a medium containing 10% FBS (heat inactivated) and 1% penicillin/streptomycin solution; b) for the passaged cells, the adherent cells were firstly washed with 0.05% trypsin/EDTA solution (3 mL), then trypsin/EDTA (3 mL) was added and vortexed to coat the cells evenly. The resulting culture was incubated at 37° C. until the cells were detached (observed with microscope to verify that the cells were detached). An equal volume of cell culture medium was added to inactivate trypsin, the detached cells were collected, and centrifuged at 200×g for 5 minutes and then re-suspended in fresh culture medium."}, "MDA-MB-468": {"test_system": "MDA-MB-468", "test": "In vitro cytotoxicity test (CellTiter Glo, 96 h)", "type": "cell-based", "settings": "MDA-MB-468, HER2-negative breast cancer; ADC DAR about 4", "protocol": "as §1, §2, §3"}, "MCF-7": {"test_system": "MCF-7", "test": "In vitro cytotoxicity test (CellTiter Glo, 96 h)", "type": "cell-based", "settings": "MCF-7, HER2-weakly positive breast cancer; ADC DAR about 4", "protocol": "as §1, §2, §3"}, "NCI-N87": {"test_system": "NCI-N87", "test": "In vitro cytotoxicity test (CellTiter Glo, 96 h)", "type": "cell-based", "settings": "NCI-N87, HER2-positive gastric cancer; ADC DAR about 4", "protocol": "as §1, §2, §3"}, "HCC1954": {"test_system": "HCC1954", "test": "In vitro cytotoxicity test (CellTiter Glo, 96 h)", "type": "cell-based", "settings": "HCC1954, HER2-positive breast cancer; ADC DAR about 4", "protocol": "as §1, §2, §3"}, "BT-474": {"test_system": "BT-474", "test": "In vitro cytotoxicity test (CellTiter Glo, 96 h)", "type": "cell-based, human", "settings": "BT-474, HER2-positive breast cancer; ADC DAR about 4", "protocol": "as §1\nas §2, with “incubator. […]” for “incubator.”"}}, "note": "Square brackets hold non-standard residues; d marks the D form. Peptide text beside a SMILES is read from it. * marks the point of attachment. Dolaproine = CO[C@@H]([C@@H]1CCCN1)[C@@H](C)C(=O)O; Dil = CC[C@H](C)[C@H](NC)[C@@H](CC(=O)O)OC; X1 = C[C@@H](N*)[C@@H](O)c1ccccc1; NMeV = CN[C@H](C(=O)O)C(C)C"}
{"smiles": "COC(=O)CC(SCCO)C(=O)NCCCCCC(=O)Nc1ccccc1", "note": "(stereo not drawn) [Conjugate-2]", "values": [{"measurement": "Remaining amount", "setting": "[1]", "value": 98, "unit": "%"}]}
{"smiles": "CC(=O)N[C@@H](CSC1CC(=O)N(CCCCCC(=O)Nc2ccccc2)C1=O)C(=O)NCc1ccccc1", "note": "(stereo partly drawn) [Conjugate-1′]", "values": [{"measurement": "Remaining amount", "setting": "[1]", "value": 53, "unit": "%"}]}
{"smiles": "CC[C@H](C)[C@@H]([C@@H](CC(=O)N1CCC[C@H]1[C@H](OC)[C@@H](C)C(=O)N[C@H](C)[C@@H](O)c1ccccc1)OC)N(C)C(=O)[C@@H](NC(=O)[C@@H](NC)C(C)C)C(C)C", "note": "[MMAE, Monomethyl-auristatin E] (H-[NMeV]V[Dil][Dolaproine]-X1)", "values": [{"measurement": "IC50", "setting": "SK-OV-3", "value": 0.644, "unit": "nM"}, {"measurement": "IC50", "setting": "MDA-MB-468", "value": 0.0669, "unit": "nM"}, {"measurement": "IC50", "setting": "MCF-7", "value": 0.223, "unit": "nM"}, {"measurement": "IC50", "setting": "NCI-N87", "value": 0.161, "unit": "nM"}, {"measurement": "IC50", "setting": "HCC1954", "value": 0.116, "unit": "nM"}, {"measurement": "IC50", "setting": "BT-474", "value": 0.299, "unit": "nM"}]}
{"smiles": "O=C(CCCCCN1C(=O)CC(SCCO)C1=O)Nc1ccccc1", "note": "(stereo not drawn) [Conjugate-2′]", "values": [{"measurement": "Remaining amount", "setting": "[1]", "value": 61, "unit": "%"}]}
{"smiles": "COC(=O)CC(SCc1ccccc1)C(=O)NCCCCCC(=O)Nc1ccccc1", "note": "(stereo not drawn) [Conjugate-3]", "values": [{"measurement": "Remaining amount", "setting": "[1]", "value": 93, "unit": "%"}]}
{"smiles": "COC(=O)CC(SC[C@H](NC(C)=O)C(=O)NCc1ccccc1)C(=O)NCCCCCC(=O)Nc1ccccc1", "note": "(stereo partly drawn) [Conjugate-1]", "values": [{"measurement": "Remaining amount", "setting": "[1]", "value": 96, "unit": "%"}]}
{"smiles": "O=C(CCCCCN1C(=O)CC(SCc2ccccc2)C1=O)Nc1ccccc1", "note": "(stereo not drawn) [Conjugate-3′]", "values": [{"measurement": "Remaining amount", "setting": "[1]", "value": 49, "unit": "%"}]}
